Reference: patent US8735609B2, “Bryostatin analogues, synthetic methods and uses” (The Board of Trustees of the Leland Stanford Junior …, priority 2007, dated 2014)

Legend:
[1] = target: T1, PKCδ-C1B (Mus musculus, UniProt P28867); assay: PKCδ-C1B assay; format: binding
T1 construct: made in house
Experimental: Phosphatidyl serine vesicles are prepared by the addition of phosphatidyl serine (10 mg/mL in chloroform, 0.4 mL) to a glass test tube followed by removal of the chloroform under a stream of nitrogen (5 min). […] The resulting solution is stored over ice. […] Stock solutions of compounds are diluted with absolute ethanol in glass in serial fashion. […] The tubes are incubated at 37° C. for 90 min. and then put on ice for 5 min. Each tube is then filtered separately through a pre-soaked filter disc. […] The filter is subsequently rinsed with cold 20 mM TRIS buffer (5 mL) dropwise. […] The filters are immediately counted in a scintillation counter (Beckman LS 6000SC). Counts per minute are averaged among three trials at each concentration.

[2] = system: P388 cell line; assay: P388 murine lymphocytic leukemia cell assay; format: cell-based
Experimental: Cells from a P388 cell line (CellGate, Inc., Sunnyvale, Calif.) are grown in RPMI 1640 cell medium containing fetal calf serum (10%), L-glutamine, penicillin, streptomycin and are split twice weekly. All compounds are first diluted with DMSO. Later serial dilutions are done with a phosphate buffer solution (HYQ DPBS modified phosphate buffered saline). All dilutions are done in glass vials and the final DMSO concentration is always below 0.5% by volume. Final two-fold dilutions are done in a 96 well plate using cell media so that each well contains 50 μL. All compounds are assayed in quadruplicate over 12 concentrations. Cell concentration is measured using a hemacytometer and the final cell concentration is adjusted to 1×10^4 cells/mL with cell medium. The resulting solution of cells (50 μL) is then added to each well and the plates are incubated for 5 days in a 37° C., 5% CO2, humidified incubator (Sanyo CO2 incubator). MTT solution (3-[4,5-dimethylthiazol-2-yl]-2,5-diphenyltetrazolium bromide, 10 μL) is then added to each well and the plates are re-incubated under identical conditions for 2 h. To each well is then added acidified isopropanol (150 μL of i-PrOH solution containing 0.05 N HCl) and mixed thoroughly. The plates are then scanned at 595 nm and the absorbances are read (Wallac Victor 1420 Multilabel Counter). The resulting data is then analyzed to determine an ED50 value using the Prism software package (GraphPad).

[3] = system: NCI human cancer cell-lines; assay: In vitro inhibition of growth in NCI human cancer cell lines (panel); format: cell-based
[4] = system: CCRF-CEM; assay: NCI human cancer cell line growth inhibition: CCRF-CEM (Leukemia); format: cell-based; settings: Homo sapiens
[5] = system: HL-60(TB); assay: cells; format: cell-based, human; settings: Homo sapiens, HL-60, read-out: Growth inhibition (GI50)
[6] = system: K-562; assay: NCI human cancer cell line growth inhibition: K-562 (Leukemia); format: cell-based; settings: Homo sapiens, K562
[7] = system: MOLT-4; assay: NCI human cancer cell line growth inhibition: MOLT-4 (Leukemia); format: cell-based; settings: Homo sapiens
[8] = system: EKVX; assay: NCI human cancer cell line growth inhibition: EKVX (NSC Lung); format: cell-based; settings: Homo sapiens
[9] = system: HOP-92; assay: NCI human cancer cell line growth inhibition: HOP-92 (NSC Lung); format: cell-based; settings: Homo sapiens
[10] = system: COLO 205; assay: NCI human cancer cell line growth inhibition: COLO 205 (Colon); format: cell-based; settings: Homo sapiens
[11] = system: HCT-116; assay: NCI human cancer cell line growth inhibition: HCT-116 (Colon); format: cell-based; settings: Homo sapiens
[12] = system: HCT-15; assay: NCI human cancer cell line growth inhibition: HCT-15 (Colon); format: cell-based; settings: Homo sapiens
[13] = system: HT29; assay: NCI human cancer cell line growth inhibition: HT29 (Colon); format: cell-based; settings: Homo sapiens, HT-29
[14] = system: KM12; assay: NCI human cancer cell line growth inhibition: KM12 (Colon); format: cell-based; settings: Homo sapiens
[15] = system: SW-620; assay: NCI human cancer cell line growth inhibition: SW-620 (Colon); format: cell-based; settings: Homo sapiens
[16] = system: PC-3; assay: NCI human cancer cell line growth inhibition: PC-3 (Prostate); format: cell-based; settings: Homo sapiens
[17] = system: DU-145; assay: NCI human cancer cell line growth inhibition: DU-145 (Prostate); format: cell-based; settings: Homo sapiens
[18] = system: LOX IMVI; assay: NCI human cancer cell line growth inhibition: LOX IMVI (Melanoma); format: cell-based; settings: Homo sapiens
[19] = system: MI4; assay: NCI human cancer cell line growth inhibition: MI4 (Melanoma); format: cell-based; settings: Homo sapiens
[20] = system: SK-MEL-2; assay: NCI human cancer cell line growth inhibition: SK-MEL-2 (Melanoma); format: cell-based; settings: Homo sapiens
[21] = system: SK-MEL-5; assay: NCI human cancer cell line growth inhibition: SK-MEL-5 (Melanoma); format: cell-based; settings: Homo sapiens
[22] = system: UACC-257; assay: NCI human cancer cell line growth inhibition: UACC-257 (Melanoma); format: cell-based; settings: Homo sapiens
[23] = system: OVCAR-4; assay: NCI human cancer cell line growth inhibition: OVCAR-4 (Ovarian); format: cell-based; settings: Homo sapiens
[24] = system: OVCAR-5; assay: NCI human cancer cell line growth inhibition: OVCAR-5 (Ovarian); format: cell-based; settings: Homo sapiens
[25] = system: SK-OV-3; assay: NCI human cancer cell line growth inhibition: SK-OV-3 (Ovarian); format: cell-based; settings: Homo sapiens
[26] = system: 786-0; assay: NCI human cancer cell line growth inhibition: 786-0 (Renal); format: cell-based; settings: Homo sapiens
[27] = system: A498; assay: NCI human cancer cell line growth inhibition: A498 (Renal); format: cell-based; settings: Homo sapiens
[28] = system: ACHN; assay: NCI human cancer cell line growth inhibition: ACHN (Renal); format: cell-based; settings: Homo sapiens
[29] = system: CAKI-1; assay: NCI human cancer cell line growth inhibition: CAKI-1 (Renal); format: cell-based; settings: Homo sapiens
[30] = system: SN12C; assay: NCI human cancer cell line growth inhibition: SN12C (Renal); format: cell-based; settings: Homo sapiens
[31] = system: TK-10; assay: NCI human cancer cell line growth inhibition: TK-10 (Renal); format: cell-based; settings: Homo sapiens
[32] = system: UO-31; assay: NCI human cancer cell line growth inhibition: UO-31 (Renal); format: cell-based; settings: Homo sapiens
[33] = system: MCF7; assay: NCI human cancer cell line growth inhibition: MCF7 (Breast); format: cell-based; settings: Homo sapiens
[34] = system: NCI/ADR-RES; format: cell-based, human; settings: Homo sapiens, Breast, read-out: Growth inhibition (GI50) (converted)
[35] = system: MDA-MB-231/ATCC; assay: NCI human cancer cell line growth inhibition: MDA-MB-231/ATCC (Breast); format: cell-based; settings: Homo sapiens
[36] = system: BT-549; assay: NCI human cancer cell line growth inhibition: BT-549 (Breast); format: cell-based; settings: Homo sapiens
[37] = system: T-47D; assay: NCI human cancer cell line growth inhibition: T-47D (Breast); format: cell-based; settings: Homo sapiens, T47D
[38] = system: HS 578T; assay: NCI human cancer cell line growth inhibition: HS 578T (Breast); format: cell-based; settings: Homo sapiens

T1 sequence (P28867 231-281 limits assumed): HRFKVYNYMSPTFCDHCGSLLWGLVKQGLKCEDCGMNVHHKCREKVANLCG

With CCCCCCCC(=O)O[C@H]1/C(=C/C(=O)OC)C[C@H]2C[C@H](CO)OC(=O)C[C@H](O)C[C@@H]3CCC[C@H](C[C@@H]4CCO[C@H](/C=C/C(C)(C)[C@]1(O)O2)O4)O3 [Formula IIa (702.1)] the Ki [1] was 0.0003 ± 7e-05 µM, the “activity in PKCδ-C1B assay compared with the corresponding C26 methyl-containing analogue” value ([1]; vs Formula 1998a where R^3 is OH) was “significantly higher activity” and the “activity in P388 assay compared with the corresponding C26 methyl-containing analogue” value [2] was “significantly higher activity”. The EC50 ([2]; Mus musculus, P388, 120 h, read-out: P388 Assay ED50) was 0.017 µM, the “more active than bryostatin-1” value ([3]; K-562, MOLT-4, NCI-H460, HCC-2998, TK-10, MDA-MB-435) was “more than 2 orders of magnitude” and the “potency compared with bryostatin-1, on average” value ([3]; all cell groups tested) was “at least as potent, on average, as bryostatin-1”. For the same compound, the GI50 [4] was 1.55 µM, the GI50 [5] was 1.45 µM and the GI50 [6] was 0.0316 µM. It also gave a GI50 [7] of under 0.01 µM, a GI50 [8] of 2.63 µM and a GI50 [9] of 21.4 µM. For the same compound, the GI50 [10] was 0.0832 µM, the GI50 [11] was 4.79 µM and the GI50 [12] was 17.4 µM. It also gave a GI50 [13] of 2.82 µM, a GI50 [14] of 4.57 µM and a GI50 [15] of 7.59 µM. It also gave a GI50 [16] of 2.51 µM, a GI50 [17] of 9.55 µM and a GI50 [18] of 3.39 µM. For the same compound, the GI50 [19] was 5.5 µM, the GI50 [20] was 9.55 µM and the GI50 [21] was 0.372 µM. It also gave a GI50 [22] of 7.41 µM, a GI50 [23] of 7.08 µM and a GI50 [24] of 5.25 µM. It also gave a GI50 [25] of 50.1 µM, a GI50 [26] of 3.47 µM and a GI50 [27] of 0.417 µM. It also gave a GI50 [28] of 1.15 µM, a GI50 [29] of 2 µM and a GI50 [30] of 2.57 µM. It also gave a GI50 [31] of 0.0933 µM, a GI50 [32] of 14.1 µM and a GI50 [33] of 3.98 µM. It also gave a GI50 [34] of 18.2 µM, a GI50 [35] of 2.04 µM and a GI50 [36] of 19.5 µM. For the same compound, the GI50 [37] was 9.55 µM and the GI50 [38] was 6.61 µM.
